Experimental data as given in US20220242853A1, “MODIFIED CYANINE DYES AND CONJUGATES THEREOF” (BRACCO IMAGING S.P.A., priority 2019, published 2022).

How the values were obtained:
[1] = biological target: T1, human recombinant integrin αvβ3 (Homo sapiens, UniProt P05106+P06756); assay: Integrin receptor affinity ELISA (vitronectin-coated plates); assay type: binding
T1 construct: purchased R&D Systems

[2] = Biodistribution and elimination by optical imaging after intravenous administration; assay type: in vivo, Balb/c nu/nu mice; conditions: ex vivo, 24 hours after iv 1 nmol/mouse
Experimental: Biodistribution and elimination of the fluorescent agents of the invention was evaluated by optical imaging after intravenous administration in male Balb/c nu/nu mice, 6-10 weeks of age (Charles River Laboratories). Briefly, mice housed 4 per cage and fed with VRF1 (P) sterile diet (Special Diets Services Ltd) up to the end of the acclimation period (5 days). Then, AIN-76a rodent diet irradiated (Research Diets), a special diet that reduces auto-fluorescence, was used up to the end of the experiments. Imaging experiments were performed using the preclinical optical system IVIS Spectrum (Perkin Elmer).
In vivo imaging was performed under gas anesthesia (Sevofluorane 6-8% in oxygen). Animals were intravenously injected with the compounds and imaged longitudinally at 30 min, 1 h, 2 h, 3 h, 4 h, 6 h, and 24 h post-administration. Thus, animals were euthanized by anesthesia overdose, and the main tissues and organs of interest were excised for ex vivo optical imaging. Regions of interest (ROIs) were drawn on the tissues of interest for each fluorescence image at every time point to evaluate signal intensity (expressed as Average adiant Efficiency). The ratio between the fluorescence signal in the muscle (background tissue) and excretory organs (kidney, liver) was then calculated to assess the contrast. The tissue half-life was calculated by fitting the fluorescence signal decay in the muscle with a bi-exponential decay equation model using GraphPad Prism Software (version 5 for Windows).

[3] = tested on: WM-266-4 human melanoma cells; assay: Cell uptake by flow cytometry (FACS); assay type: cell-based
Experimental: The human melanoma cell line WM-266-4 (ATCC, CRL-1676) was used as in vitro model to assess the cell uptake of representative integrin-binding Compounds 1 and 3, based on the high expression of the integrin receptors, particularly αvβ3, on the membrane of these cells (Capasso et al., PlosOne 2014).
Adherent cells at about 70% confluence were incubated with the compounds 1 or 3 (1 μM) for 2h at 37° C. (5% CO2) in presence of Dulbecco's Modified Eagle's Medium (DMEM) supplemented with 10% FBS, 2 mM glutamine, 100 IU/mL penicillin and 100 μg/mL streptomycin. After two washing steps with PBS, cells were detached using 0.1 mM EDTA in PBS, centrifuged and suspended in buffer (PBS, 0.5% BSA, 0.1% NaN3) for flow cytometry experiments. Fluorescence Activated Cell Sorting (FACS) was used to detect the fluorescence signal within the cells, as measure of cell uptake. Samples were excited with an Argon laser and the emission detected using a 670 nm longpass filter. Values of fluorescence intensity were obtained from the histogram statistic produced by the instrument software.
The residual internalization was calculated by considering the value of fluorescence intensity in absence of the competitor as 100%.
Furthermore, to assess the effect of biological fluids on the cell uptake, parallel experiments were performed incubating the cells with a compounds of the invention in presence of human serum from male AB plasma (Sigma Aldrich, H4522) or human albumin (Sigma Aldrich, A9511). The residual internalization was calculated by considering the value of fluorescence intensity in absence of the serum as 100%. Such uptake assessment also represents an indication of the percentage of compound which is sequestered by the plasma proteins, in particular albumin, when it diffuses through the vascular compartment before reaching the tissue of interest and the particular targeted receptor.

[4] = biological target: T2, human serum albumin (HSA) (Homo sapiens, UniProt P02768); assay: Binding affinity to human serum albumin (absorbance peak shift or ultrafiltration method); conditions: for Kd: phosphate buffer, 25° C., one of the two methods, read-out: HSA affinity (KA) (converted)
T2 construct: purchased Sigma Aldrich A9511
Experimental: Binding affinity to human serum albumin (HSA; Sigma Aldrich, A9511) was measured using two methods, according to the level of binding affinity of the compounds.
The first method, optimal for compounds which strongly interact with HSA, is based on the analysis of the absorbance spectrum peak shift after the incubation of the dye in solutions containing HSA. Briefly, the samples were incubated at a fixed concentration (1 μM) with HSA dilutions (1×10^−6-4×10^−4M), in phosphate buffer for 5 min in the spectrophotometer at 25° C. before measurements. The measure was performed at the maximum absorbance wavelength of the shifted peak.
The second method, optimal for compound with low affinity for HSA, is based on measuring the variation of the absorbance of solutions containing the dye and various concentrations of HSA after ultrafiltration. Briefly, each compound was incubated at a fixed concentration (2 μM) with HSA dilutions (1×10^−6-4×10^−4 M), in phosphate buffer. The samples were centrifuged (10,000 g for 30 min at 25° C.) in a Microcon device (10 kDa MWCO, Amicon Ultra-0.5 Centrifugal Filter Unit with Ultracel-10 membrane, Millipore) and the absorbance measurements of the filtrates were obtained with the spectrophotometer at the maximum absorbance wavelength of the fluorophore.
For both methods, the affinity constant (KA, M^−1) was calculated by fitting the raw data with the following formula:
wherein ΔA/b=Absorbance measured (b=1 cm) KRL=KA calculated by regression analysis (curve fitting) Δε·Rt calculated by regression analysis (curve fitting) [L]=Albumin concentration
In the first method, ΔA/b corresponds to the absorbance measured for each sample, whereas in the second method ΔA/b is obtained subtracting the absorbance of the control sample (dye without HSA) to the absorbance of each other sample.
However, the measurement of the affinity constant is more precise when the suitable method is used as a function of the affinity level of the compound.

[5] = Optical properties: excitation/emission maxima and absolute fluorescence quantum yield; assay type: physicochemical
Experimental: Analysis were performed with a Waters Atlantis dC18 5 μm, 4.6×150 mm column using a gradient of phase A CH3COONH4 10 mM and phase B acetonitrile. Measured mass/charge ratios are listed for each compound. A dual-beam UV-VIS spectrophotometer (Lambda 40, Perkin Elmer) was used to determine the absorbance (Abs) of the compounds of the invention. […] The measurements were performed using an excitation wavelength at maximum absorbance of different dyes, and the sample was excited with a […] Xenon Light Source. Detection was performed by photomultiplier tubes (PMT-NIR) cooled detector or by TBX-04 detector. Dye solutions were carefully prepared to have an absorbance lower than 0.1 (optical densities) to minimize re-absorption phenomena. The compounds of the invention have been characterized in terms of their optical properties in vitro in aqueous medium (i.e., water/PBS pH 7.4) and in a clinical chemistry control serum (Seronorm, Sero SA), mimicking the chemical composition and optical properties of human serum. All dye or dye-conjugate solutions were freshly prepared.

| Molecule | Kd [4] [µM] | Max Em ([5]; PBS pH 7.4) [nm] | Max Ex ([5]; PBS pH 7.4) [nm] | Φ (absolute fluorescence quantum yield) ([5]; PBS pH 7.4) [%] | Φ (absolute fluorescence quantum yield) ([5]; Seronorm control serum) [%] | HSA KA ([4]; first method (absorbance peak shift)) | HSA KA ([4]; second method (ultrafiltration)) | IC50 [1] [µM] | Kidney to muscle ratio [2] | Liver to muscle ratio [2] | Residual cell uptake in presence of human serum ([3]; 1 μM, 2h at 37° C., uptake without serum = 100%) [%] | Residual uptake in the presence of c(RGDfK) as competitor ([3]; 100 μM c(RGDfK), uptake without competitor = 100%) [%] |
| --- | --- | --- | --- | --- | --- | --- | --- | --- | --- | --- | --- | --- |
| CC(CC[N+]1=C(/C=C/C=C/C=C/C=C2/N(CCCCCC(=O)NCC3C[C@@H]4CC[C@H]5C(=O)N[C@@H](CCCNC(=N)N)C(=O)NCC(=O)N[C@@H](CC(=O)O)C(=O)N[C@H]3C(=O)N45)c3ccc(C(=O)NCC(O)C(O)C(O)C(O)CO)cc3C2(C)C)C(C)(C)c2cc(C(=O)NCC(O)C(O)C(O)C(O)CO)ccc21)S(=O)(=O)[O-] (stereo partly drawn) [Compound 3] | 238 | 785 | 757 | 10.6 | 11.7 | – | – | 0.00264 ± 0.00035 | 2.90 ± 0.55 | 2.50 ± 0.32 | 75 | 15 |
| CC1(C)C(/C=C/C=C/C=C2/N(CCCCCC(=O)O)c3ccc(C(=O)NCC(O)C(O)C(O)C(O)CO)cc3C2(C)C)=[N+](CCCCS(=O)(=O)[O-])c2ccc(C(=O)NCC(O)C(O)C(O)C(O)CO)cc21 (stereo not drawn) [Compound 6] | > 1000 | 675 | 656 | 35.6 | 35.9 | – | – | – | – | – | – | – |
| CC1(C)C(/C=C/C=C/C=C/C=C2\N(CCCCS(=O)(=O)O)c3ccc4ccccc4c3C2(C)C)=[N+](CCCCS(=O)(=O)[O-])c2ccc3ccccc3c21 [ICG, Indocyanine Green, reference compound] | 2.88 | 810 | 780 | 1.5 | 7.8 | – | – | – | – | – | – | – |

Second part, led by results:

| Kd [4] [µM] | Max Em ([5]; PBS pH 7.4) [nm] | Max Ex ([5]; PBS pH 7.4) [nm] | Φ (absolute fluorescence quantum yield) ([5]; PBS pH 7.4) [%] | Φ (absolute fluorescence quantum yield) ([5]; Seronorm control serum) [%] | HSA KA ([4]; first method (absorbance peak shift)) | HSA KA ([4]; second method (ultrafiltration)) | Molecule | IC50 [1] [µM] | Kidney to muscle ratio [2] | Liver to muscle ratio [2] | Residual cell uptake in presence of human serum ([3]; 1 μM, 2h at 37° C., uptake without serum = 100%) [%] | Residual uptake in the presence of c(RGDfK) as competitor ([3]; 100 μM c(RGDfK), uptake without competitor = 100%) [%] |
| --- | --- | --- | --- | --- | --- | --- | --- | --- | --- | --- | --- | --- |
| 196 | 785 | 755 | 8.9 | 13.4 | – | – | CC(CC[N+]1=C(/C=C/C=C/C=C/C=C2/N(CCCCCC(=O)O)c3ccc(C(=O)NCC(O)C(O)C(O)C(O)CO)cc3C2(C)C)C(C)(C)c2cc(C(=O)NCC(O)C(O)C(O)C(O)CO)ccc21)S(=O)(=O)[O-] (stereo not drawn) [Compound 4] | – | – | – | – | – |
| 289 | 675 | 655 | 35.1 | 35.1 | – | – | CC1(C)C(/C=C/C=C/C=C2/N(CCCCCC(=O)O)c3ccc(C(=O)NC(CO)(CO)CO)cc3C2(C)C)=[N+](CCCCS(=O)(=O)[O-])c2ccc(C(=O)NC(CO)(CO)CO)cc21 [Compound 7] | – | – | – | – | – |
| – | 665 | 645 | 27.0 | 35.6 | – | – | CN1/C(=C/C=C/C=C/C2=[N+](CCCCCC(=O)O)c3ccc(S(=O)(=O)[O-])cc3C2(C)C)C(C)(C)c2cc(S(=O)(=O)O)ccc21 [Sulfo-Cy5, reference compound] | – | – | – | – | – |
| – | – | – | – | – | 215,000 M^−1 | 216,000 M^−1 | IRDye 800CW carboxylate [reference compound] | – | – | – | – | – |
